The values below come from patent publication US11805778B2, “Composition including an antimicrobial boosting agent including an amphocarboxylate and methods of increasing the antimicrobial effectiveness of a composition” (KIMBERLY-CLARK WORLDWIDE, INC., priority 2018, dated 2023).

Where only a bound is given, the exact number is not on record here.

This assay has as its system B. cepacia (ATCC 25416). As to the kind of experiment: Minimum Effective Concentration (MEC) Test Method. The following applies: for MEC of antimicrobial agent Lactic Acid (Purac FCC 88) / MEC of antimicrobial agent Sodium Benzoate / MEC of antimicrobial agent Caprylhydroxamic Acid (Zeastat) / MEC of antimicrobial agent Hydroxyacetophenone (SymSave H): B. cepacia, 24 hours; for performance as antimicrobial boosting agent: summary in words of the MEC testing of Table 1. In kind it is cell-based, Burkholderia cepacia. How it is done:
Initial testing was conducted to screen a variety of surfactants in researching for potential antimicrobial boosting agents. The initial testing followed the methodology as described in the Minimum Effective Concentration (“MEC”) Test Method described in the Test Methods section herein. To summarize, the MEC testing paired a variety of potential antimicrobial boosting agents with a variety of known antimicrobial agents to determine the MEC of the respective antimicrobial agent that must be used to provide an effective antimicrobial result, as described in further detail in the Test Methods section. The more positive the boosting characteristics of an antimicrobial boosting agent, then the lower the MEC that would be required for the paired antimicrobial agent. It is to be noted that the molarities listed in Table 1 are approximate values that were calculated based on the estimated activities of the ingredients and the molecular weights of the active ingredients. In instances where an exact activity was not available for an ingredient blend, the ingredient blend activity was estimated as the average of the upper and lower limits of the specification provided by the manufacturer of such blend. In instances where an exact molecular weight could not be calculated (for example, in compounds derived from a natural oil like coconut oil), the molecular weight of the active was estimated based on a weighted average of the molecular weights of the constituent species.
The Minimum Effective Concentration Test Method discussed herein began by adding B. cepacia (ATCC 25416) culture at a final concentration of approximately 5×10^6 CFU/mL to the composition to be challenged. The challenged composition was then allowed to incubate at room temperature for 24 hours. After 24 hours, a preservative neutralizing broth was added to the mixture and measurements were subsequently taken to determine the concentration of B. cepacia still remaining after exposure to the test composition.
The Minimum Effective Concentration was determined by completing the process described above on a series of compositions with the same concentration of antimicrobial boosting agent, but with different concentrations of antimicrobial agent. The Minimum Effective Concentration of antimicrobial agent for any given value of antimicrobial boosting agent was defined as the minimum concentration of antimicrobial agent required to reduce the concentration of B. cepacia to a level below the detection threshold for the test method, which was approximately 100 CFU/mL. In instances where multiple rounds of Minimum Effective Concentration testing were completed, the value reported is the mean of the Minimum Effective Concentration values generated by each individual series of tests.

Where [1] appears, read: paired with the labelled potential boosting agent at 5 mmol/L.
Setting [2] is: no antimicrobial boosting agent.

Take `C[N+](C)(CCO)CC(O)C[N+](C)(C)CCO.[Cl-].[Cl-]` [Cola Moist 200, Hydroxypropyl Bis-Hydroxyethyldimonium Chloride]: the “MEC of antimicrobial agent Lactic Acid (Purac FCC 88)” value (shortened to “MEC … (Purac FCC 88)”) under setting [1] is given as 50 mmol/L.
For the molecule `CCCCCCCCCCCC(=O)OC(C)C(=O)OC(C)C(=O)[O-].[Na+]` (centres unmarked) [Dermosoft SLL, Sodium Lauroyl Lactylate], under setting [1], the “MEC … (Purac FCC 88)” value is 30 mmol/L.
Regarding `CCCCCCCC[N+](C)(C)CC(=O)[O-]` [Mackam BW-139, Octyl Betaine], the “MEC … (Purac FCC 88)” value under setting [1] was 40 mmol/L.
As to `CCCCCCCCCCCCCCCC[N+](C)(C)CC(=O)[O-]` [Mackam CET, Cetyl Betaine], under setting [1], the “MEC … (Purac FCC 88)” value was determined as 40 mmol/L.
Take `CC(O)C(=O)O` (centres unmarked) [Purac FCC 88, Lactic Acid]: the “MEC … (Purac FCC 88)” value under setting [2] came to 60 mmol/L.
`O=C([O-])c1ccccc1.[Na+]` [Sodium Benzoate]: the “MEC of antimicrobial agent Sodium Benzoate” value under setting [2] turned out to be 7.5 mmol/L.
With `CCCCCCCC[N+](C)(C)[O-]` [Techmine 280, Octyldimethylamine Oxide], under setting [1], the “MEC … (Purac FCC 88)” value was 40 mmol/L.
Take `CCCCCCCC(=O)NO` [Zeastat, Caprylhydroxamic Acid]: under setting [2], the “MEC of antimicrobial agent Caprylhydroxamic Acid (Zeastat)” value (from here on “MEC … (Zeastat)”) was 10 mmol/L.
Regarding “Caprylyl/Capryl Glucoside [Plantaren 810 UP]”, the “MEC … (Purac FCC 88)” value under setting [1] came out at 60 mmol/L.
Cocamide DIPA [Cola Liquid DC]: the “performance as antimicrobial boosting agent” value (“performance” below) is reported as “did not perform well as antimicrobial boosting agents”. Further, under setting [1], the “MEC of antimicrobial agent Hydroxyacetophenone (SymSave H)” value (from here on “MEC … (SymSave H)”) amounted to 20 mmol/L and the “MEC … (Purac FCC 88)” value was “Unstable”.
For Cocamidopropyl Betaine [Dehyton PK-45], under setting [1], the “MEC of antimicrobial agent Sodium Benzoate” value is listed as greater than 15 mmol/L.
With Coco-Glucoside [Plantacare 818 UP], the “performance” value is on record as “did not perform well as antimicrobial boosting agents”. Under setting [1], the “MEC … (Purac FCC 88)” value is listed as greater than 60 mmol/L.
For the molecule “Disodium Capryloamphodiacetate [Sopalteric DSCYA-27]”, the “performance” value is reported as “provided at least some antimicrobial boosting effect”. For the same molecule, the “MEC … (Purac FCC 88)” value under setting [1] was 30 mmol/L.
With “Disodium Cocoamphodiacetate [Mackam 2C-75]”, the “performance” value is “provided at least some antimicrobial boosting effect”. In addition, under setting [1], the “MEC … (Zeastat)” value came out at 4 mmol/L, the “MEC … (SymSave H)” value turned out to be 10 mmol/L, the “MEC … (Purac FCC 88)” value came out at 30 mmol/L and the “MEC of antimicrobial agent Sodium Benzoate” value is 2.5 mmol/L.
For “Disodium Cocoamphodipropionate [Mackam 2CSF-40CG]”, the “performance” value is on record as “provided at least some antimicrobial boosting effect”. Under setting [1], the “MEC … (Zeastat)” value was 6 mmol/L, the “MEC … (SymSave H)” value is reported as 10 mmol/L, the “MEC … (Purac FCC 88)” value is less than 10 mmol/L and the “MEC of antimicrobial agent Sodium Benzoate” value is 2.5 mmol/L.
With “Disodium PEG-12 Dimethicone Sulfosuccinate [Mackanate Ultra Si]”, under setting [1], the “MEC … (Purac FCC 88)” value came out at 40 mmol/L.
“Laureth-3 Phosphate [Dermalcare MAP L-130]”: the “MEC … (Purac FCC 88)” value under setting [1] was 40 mmol/L.
Regarding Lauryl Glucoside [Plantaren 1200 N UP], under setting [1], the “MEC … (Purac FCC 88)” value is reported as greater than 30 mmol/L and the “MEC of antimicrobial agent Sodium Benzoate” value was 10 mmol/L.
Regarding “PEG-40 Hydrogenated Castor Oil [Tagat CH40]”, the “performance” value is “did not perform well as antimicrobial boosting agents”. Also, under setting [1], the “MEC … (Zeastat)” value came out at 10 mmol/L, the “MEC … (SymSave H)” value is given as greater than 20 mmol/L and the “MEC … (Purac FCC 88)” value is listed as greater than 60 mmol/L.
Turning to “PEG-80 Sorbitan Laurate [Alkamuls PSML-80/72LD]”, the “MEC … (Purac FCC 88)” value under setting [1] turned out to be 50 mmol/L.
In the case of Polysorbate 20 [Eumulgin SML-20], the “performance” value is “did not perform well as antimicrobial boosting agents”. For the same molecule, under setting [1], the “MEC … (Zeastat)” value is recorded as 10 mmol/L, the “MEC … (SymSave H)” value is greater than 20 mmol/L, the “MEC … (Purac FCC 88)” value came out at 50 mmol/L and the “MEC of antimicrobial agent Sodium Benzoate” value came out at 5 mmol/L.
For the molecule Sodium Cocoamphoacetate [ColaTeric 1C], under setting [1], the “MEC … (SymSave H)” value is recorded as 15 mmol/L and the “MEC … (Purac FCC 88)” value turned out to be 30 mmol/L.
On to “Sodium Cocoamphoacetate [Mackam HPC-32L]”, for which the “MEC … (Purac FCC 88)” value under setting [1] turned out to be 40 mmol/L.
For the molecule “Sodium Cocoamphopropionate [Rewoteric AM KSF 40]”, under setting [1], the “MEC … (Zeastat)” value came out at 4 mmol/L, the “MEC … (SymSave H)” value amounted to 10 mmol/L, the “MEC … (Purac FCC 88)” value is less than 10 mmol/L and the “MEC of antimicrobial agent Sodium Benzoate” value is 1.8 mmol/L.
In the case of “Sodium Cocoyl Isethionate [Hostapon SCI 85 P]”, the “performance” value is recorded as “did not perform well as antimicrobial boosting agents”. The “MEC … (Purac FCC 88)” value under setting [1] came to 50 mmol/L.
Regarding “Sodium Lauroamphoacetate [Sopalteric SLA-32]”, the “performance” value is on record as “provided at least some antimicrobial boosting effect”. Besides, the “MEC … (Purac FCC 88)” value under setting [1] stood at 20 mmol/L.
With “Sodium Laurylglucosides Hydroxypropylsulfonate [Suga Nate 160]”, under setting [1], the “MEC … (Purac FCC 88)” value was greater than 50 mmol/L.
For the molecule “Sodium Methyl Cocoyl Taurate [Hostapon CT Paste]”, the “MEC of antimicrobial agent Sodium Benzoate” value under setting [1] is 2.5 mmol/L.
On to sodium cocoamphoacetate, for which the “performance” value was “provided at least some antimicrobial boosting effect”.
In the case of sodium cocoamphodipropionate, the “performance” value was “provided at least some antimicrobial boosting effect”.
